The numbers were not newly measured in patent publication US6630467B2, “Pyridone-fused azabicyclic- or cytisine derivatives, their preparation and their use in addiction therapy” (Pfizer Inc., priority 1996, dated 2003), which cites them from elsewhere.

The conditions of the series: in vivo.

`O=c1cccc2n1CC1CNCC2C1` (centres unmarked) [cytisine, 1,2,3,4,5,6-hexahydro-1,5-methano-pyrido[1,2-a][1,5]diazocin-8-one]: the “penetration of the brain barrier” value is recorded as “inability to penetrate the brain barrier” and the potency entry is listed as “not high”.
